Source: patent US20050182020A1, “Ceramide de novo synthesis-based therapeutic and prophylactic methods, and related articles of manufacture” (priority 2003, published 2005)

Experiments:
[1] = tested on: control cells (4513); experiment: Cholesterol synthesis from 3H-mevalonate in control lymphoblasts; type: cell-based, human; conditions: 16 h
Protocol: (§1) FIG. 12. Increased free cholesterol synthesis in HSN cells. In order to investigate whether increased SRE-mediated gene transcription also results in increased cholesterol synthesis cells were incubated with radioactive mevalonate, a precursor which represents a committed step in cholesterol synthesis (see FIG. 11). Control and HSN1 cells were incubated for 7 h and 18 h in the presence of trace amounts of ^3H-mevalonate. Lipids were extracted and separated by thin […] chromatography (TLC). Radioactive counts in the cholesterol fraction were analyzed by liquid scintillation counting.
(§2) FIG. 16. Incubation with mevastatin decreases free cholesterol synthesis in HSN cells as well as in controls. Cells were treated for 16 h in the presence of ^3H-mevalonate to assess cholesterol de novo synthesis and several inhibitors of either cholesterol or ceramide synthesis (Mevastatin=Statin), C6 ceramide (previously shown by us to decreased SREBP levels and SRE-mediated gene transcription), cycloserine (inhibitor of serine-palmiltoyl transferase), cholesterol (classical inhibitor of de novo synthesis by negative feedback).

[2] = tested on: HSN1 cells (4561); experiment: Cholesterol / cholesterylester synthesis from 3H-mevalonate in HSN1 cells; type: cell-based, human
Protocol: as §1
FIG. 14. Oleic acid increases HSN 4561 synthesis of high levels of free cholesterol but not cholesteryl ester. Cells were incubated for 4 h with ^3H-mevalonate and grown in the presence or absence of 0.3 mM oleic acid.
as §2

[3] = tested on: SRE-mediated gene transcription; experiment: SRE-promoter luciferase reporter gene assay in stably transfected CHO cells; type: cell-based, Chinese hamster; conditions: for SRE-mediated gene transcription (luciferase RLU/protein): myriocin 1 μM, cycloserine 500 mM, fumonisin B1 10 μM, PPMP 20 μM, NB-DNJ 40 μM, cholesterol/25-OH cholesterol 10/1 μg/ml, vs 1% BSA
Protocol: FIG. 3. Inhibition of ceramide synthesis and SRE-mediated gene transcription. (A) Decreased ceramide synthesis correlates with decreased levels of SRE-mediated gene transcription and mSREBP. […] After cell lysis, luciferase activity was analyzed, and expressed as a ratio of protein content. Data represent the average (±S.D.) of at least 4 different experiments, each performed in triplicate. […] CHO cells stably transfected with an SRE-promoter construct linked to the luciferase reporter gene were incubated for 8 h in the presence of control conditions (1% BSA) or increasing levels of myriocin (0.25-1 μM). After cell lysis, luciferase activity was analyzed, expressed as a ratio of protein content. Data represent the average (±S.D.) of at least 3 different experiments, each performed in triplicate.
FIG. 4. Increased ceramide synthesis and SRE-mediated gene transcription. (A) Increased ceramide de novo synthesis correlates with increased SRE-mediated gene transcription. On day 1, CHO cells stably transfected with an SRE-promoter construct linked to the luciferase reporter gene were plated at 80% confluency. […] Cells were harvested, lysed and analyzed for luciferase activity (measured in relative light units, RLU) and protein content. Data are expressed as percentage of control and represent the average (±S.D.) of three different experiments, each performed in triplicate. Inset: Western blot analysis: On day 1, CHO cells were plated in regular growth medium. On day 2, cells were incubated for 8 h with control medium (1% BSA) or DMS (5 μM). Whole cell extracts (30 μg protein) were loaded on a 4-14% continuous gradient SDS-PAGE gel. P and M denote the precursor (125 kd) and mature (68 kd) form of SREBP-1 in a representative experiment. (B) DMS increases ceramide de novo synthesis. CHO cells were treated for 3.5 h either with control conditions (1% BSA) or DMS (2.5-5 μM). […] Data are expressed as dpm/protein and represent a typical experiment.
(§3) FIG. 5. LY-B cells fail to recover SRE-mediated gene transcription in cholesterol depletion but recover SRE-mediated gene transcription in the presence of DMS. […] Both cell lines have been transfected to stably express an SRE-promoter construct linked to the luciferase reporter gene. On day 2, cells were incubated for 16 h with 1% BSA (control) or in the presence of cholesterol (10 μg/ml) and 25-OH cholesterol (1 μg/ml) to decrease SRE-mediated gene transcription. Then, incubation medium was switched to 1% BSA or DMS (5 μM) for 6 h. After cell lysis, luciferase activity was analyzed, expressed as a ratio of protein content. Data represent the average (±S.D.) of at least 4 different experiments, each performed in triplicate.
Cell culture and stable transfections: Cells were grown in F12-nutrient mixture medium containing 10% fetal bovine serum (FBS), 1% glutamine (v/v), 1% penicillin/streptomycin (v/v), and 10% fetal bovine serum (v/v) at 37° C. in humidified CO2 (5%). To obtain stable transfectants, cells were plated in 12-well plates at 50% confluency and transfected for 5 h in the presence of serum-free Dulbecco's modified Eagle's medium (DMEM) with pSyn SRE (1 μg/well) and pWLNeo (0.25 μg/well) using Lipofectamin (1.5 μl/well). Cells were then incubated for 2 days in growth medium. On day three, neomycin-containing medium (400 μg/ml) was added. Selection for neomycin resistant colonies was continued for three weeks. Pooled clones were analyzed for luciferase expression. Experiments were performed with pooled clones as well as with cells derived from a single clone. Cells were grown in the presence of 400 μg/ml neomycin. For experimental use, cells were plated in the absence of neomycin at least 24 h ahead in regular growth medium.
Enzyme assays: Cells to be analyzed for luciferase activity were lyzed in lysis buffer A containing 0.1% Triton X-100, 50 mM Hepes, 10 mM MgSO4, pH 7.7. Cells were scraped, collected, vortexed and briefly centrifuged to pellet cell debris. […]

[4] = rats fed toxic levels, 20 week study (ref. 8); cited from earlier work
[5] = several animal studies; cited from earlier work
[6] = tested on: HSN1 lymphoblasts (HSN 4561); experiment: SRE-promoter reporter (adenovirus transfection) in HSN1 lymphoblasts; type: cell-based, human; conditions: 7 h
Protocol: (§4) FIG. 10. Increased SRE-mediated gene transcription in HSN1 cells (HSN 4561). Cells were transfected with an SRE-element containing promoter-reporter gene. This construct is identical to the promoter-reporter gene used in all previous studies. In order to achieve transfection in lymphoblasts, this promoter construct was subcloned into an adenovirus vector. Cells (control lymphoblasts and HSN1 lymphoblasts) were transfected for 3 h with this adenovirus vector and left in growth medium overnight. Medium was then switched to experimental medium containing 1% fatty acid free BSA (control conditions) or cholesterol/25-OH cholesterol (10 ug/ml/1 ug/ml) or oleic acid. After 7 h the luciferase activity which reflects binding of SREBP to the SRE-promoter element was measured. Because adenovirus mediated transfections are transient transfections the necessity for a transfection control arises. The adenovirus vector contains a β-gal control gene that is not regulated by experimental conditions and serves as a transfection control (standard practice).

[7] = tested on: Niemann Pick Disease Type A fibroblasts; experiment: Ceramide de novo synthesis (3H-serine) in NPA fibroblasts; type: cell-based; conditions: overnight incubation with agent, vs 1% BSA
Protocol: FIG. 19. Ceramide synthesis is increased in NPA fibroblasts. Fibroblasts from different control individuals and from two different cell lines derived from Niemann Pick Disease Type A were incubated for 4 h in the presence of ^3H-serine to measure de novo ceramide synthesis after having been incubated overnight in either control medium (1% BSA) or in the presence of cholesterol or C8-Ceramide. Lipid extraction and separation were carried out.

[8] = tested on: NPA fibroblasts; experiment: SRE-promoter reporter (adenoviral transfection) in NPA fibroblasts; type: cell-based; conditions: addition of cholesterol; reversible on switch to BSA
Protocol: FIG. 20. SRE-mediated gene transcription is increased in NPA fibroblasts. The hypothesis was evaluated that increased ceramide de novo synthesis affects SREBP and SRE-mediated gene transcription in Niemann Pick Type A cells. Cells were transfected with an SRE-promoter construct (using adenoviral transfection as above in HSN cells). […] Addition of cholesterol decreases SRE-mediated gene transcription and this process is also reversible.

[9] = tested on: SRE-mediated gene transcription; experiment: SRE-promoter luciferase reporter gene assay in LY-B cells (CHO cells mutated in LCB1 subunit of serine-palmitoyl transferase); type: cell-based, Chinese hamster; conditions: cholesterol 10 μg/ml and 25-OH cholesterol 1 μg/ml, 16 h
Protocol: as §3
Enzyme assays: Cells to be analyzed for luciferase activity were lyzed in lysis buffer A containing 0.1% Triton X-100, 50 mM Hepes, 10 mM MgSO4, pH 7.7. Cells were scraped, collected, vortexed and briefly centrifuged to pellet cell debris. An aliquot was used to measure luciferase activities in a luminometer (Berthold LB 9501, Wallac Inc., Gaithersburg, Md.) with a luciferin reagent from Promega (Madison, Wis.). Luciferase activity in relative light units (RLU) was divided by protein content (mg/ml) for each extract. […]

[10] = tested on: control lymphoblasts (HSN 4513); experiment: SRE-promoter reporter (adenovirus transfection) in control lymphoblasts; type: cell-based, human; conditions: oleic acid, 7 h
Protocol: as §4

[11] = tested on: SREBP; experiment: Fluorescently labeled SREBP in cell culture after addition of DAG; type: cell-based; conditions: preliminary data in cell culture
Protocol: Data: Propanolol ([…]) inhibits SRE-mediated gene transcription to 40% (+3%) within 30 min. Resvaratrol ([…]) inhibits SRE-mediated gene transcription to 7% (±16%) within 4 h.
Preliminary data: Inhibition of PAP by propanolol or inhibition of PKD by resvaratrol both decrease SRE-mediated gene transcription. Addition of a DAG analogue that is exogenously added and thus distributes to membranes other than the Golgi results in reorientation of fluorescently labeled mature SREBP.

[12] = tested on: HMG-CoA synthase mRNA; experiment: Northern blot of HMG-CoA synthase mRNA in CHO cells; type: cell-based, Chinese hamster; conditions: myriocin 1 μM, 16 h
[13] = tested on: cellular sphingomyelin levels; experiment: Cellular sphingomyelin levels (TLC, phosphorus); type: cell-based; conditions: within 24 h; data not shown
From the text: An aliquot was used for luciferase and protein determination. […] Lipids were then dried under N2. […] Absolute cpm values range between 400 and 800 cpm. […] In brief, lipids were extracted as above. Lipid extracts were run on TLC.
What is the role of cellular sphingomyelin levels on SRE-mediated gene transcription? […] LY-B cells have decreased sphingomyelin levels. Yet, SRE-mediated gene transcription is decreased in LY-B cells as well as in myriocin treated cells.

Compound: CC[C@H](C)C(=O)O[C@H]1CCC=C2C=C[C@H](C)[C@H](CC[C@@H]3C[C@@H](O)CC(=O)O3)[C@H]21 [mevastatin]
- free cholesterol synthesis in controls [1]: decreases
- free cholesterol synthesis in HSN cells ([2]; 16 h, 3H-mevalonate): decreases

Compound: CCCC[C@@H](C)[C@@H](OC(=O)C[C@@H](CC(=O)O)C(=O)O)[C@H](C[C@@H](C)C[C@H](O)CCCC[C@@H](O)C[C@H](O)[C@H](C)N)OC(=O)C[C@@H](CC(=O)O)C(=O)O [fumonisin B1]
- SRE-mediated gene transcription (luciferase RLU/protein) ([3]; 8 h): significantly reduced
- plasma cholesterol levels [4]: significantly decreased
- hepatotoxicity [5]: hepatotoxicity

Compound: CC(C)CCC[C@@H](C)[C@H]1CC[C@H]2[C@@H]3CC=C4C[C@@H](O)CC[C@]4(C)[C@H]3CC[C@]12C [cholesterol]
- SRE-mediated gene transcription (luciferase/β-gal) in HSN 1 (4561) ([6]; cholesterol/25-OH cholesterol 10/1 ug/ml): very efficient in decreasing
- ceramide de novo synthesis (3H-serine, 4 h) [7]: does not significantly decrease
- sensitivity of cholesterol de novo synthesis in HSN1 cells (4561) relative to control cells ([2]; 16 h, 3H-mevalonate): more sensitive
- SRE-mediated gene transcription [8]: decreases
- decrease of SRE-mediated gene transcription in LY-B cells compared to control cells [9]: significantly stronger

Compound: CCCCCCCC/C=C\CCCCCCCC(=O)O [Oleic acid]
- SRE-mediated gene transcription (luciferase/β-gal) in HSN 1 (4561) ([6]; oleic acid): does not decrease
- synthesis of cholesterol from 3H-mevalonate ([2]; HSN 4561, 0.3 mM oleic acid, 4 h): stimulates
- SRE-mediated gene transcription (luciferase/β-gal) in controls [10]: does not decrease

Compound: diacylglycerol [DAG]
- effect on fluorescently labeled SREBP [11]: attracts fluorescently labeled SREBP

Compound: CCCCCCC(=O)CCCCCC/C=C/C[C@@H](O)[C@H](O)[C@@](N)(CO)C(=O)O [myriocin]
- HMG-CoA synthase mRNA levels relative to control [12]: half
- cellular sphingomyelin levels [13]: does not change
- SRE-mediated gene transcription (luciferase RLU/protein) ([3]; 8 h): significantly reduced
- expression of another control β-gal reporter gene ([3]; data not shown): did not decrease
- SRE-mediated gene transcription, dose dependence ([3]; myriocin 0.25-1 μM, 8 h): dose-dependently decreases
